Measured values as given in patent publication EP2678315B1, “(Pyridin-4-yl)benzylamides as allosteric modulators of alpha 7 nAChR” (Janssen Pharmaceutica, N.V., priority 2011, dated 2012).
Several values for one entry are separate records, joined by “and”; a condition that tells them apart may be missing. Equal entries are not always repeated. Where two headings read alike, the source gives them in different places.

Molecular target: T1, human alpha 7-wt nAChR (Homo sapiens, UniProt P36544)
T1 construct: expressed in transfected cells
T1 sequence (P36544 23-502): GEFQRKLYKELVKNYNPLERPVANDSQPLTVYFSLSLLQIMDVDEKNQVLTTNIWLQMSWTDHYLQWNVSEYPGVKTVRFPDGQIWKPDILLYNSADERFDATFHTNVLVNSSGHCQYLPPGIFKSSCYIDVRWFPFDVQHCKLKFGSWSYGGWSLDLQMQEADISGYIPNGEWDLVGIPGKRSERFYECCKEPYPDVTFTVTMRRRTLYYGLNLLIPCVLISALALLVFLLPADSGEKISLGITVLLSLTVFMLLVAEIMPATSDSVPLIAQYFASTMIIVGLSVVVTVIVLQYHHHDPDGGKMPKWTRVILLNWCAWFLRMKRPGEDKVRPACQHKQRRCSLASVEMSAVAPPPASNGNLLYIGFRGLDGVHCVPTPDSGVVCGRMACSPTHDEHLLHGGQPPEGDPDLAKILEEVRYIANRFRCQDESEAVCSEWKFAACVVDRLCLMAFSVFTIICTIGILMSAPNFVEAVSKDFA
Test: Ca2+ flux imaging (FDSS) (protocol B)
Assay type: cell-based
Settings: for EC50: read-out: pEC50 (converted); for Emax: read-out: % Efficacy
Method: Example D.1 : Ca^2+ flux imaging (FDSS) (protocol B)
• a) Assay buffer Hanks buffered saline solution (HBSS, Invitrogen, Belgium), supplemented with 10 mM HEPES (Invitrogen, Belgium), CaCl2 to a final concentration of 5 mM, 0.1 % Bovine serum albumin (Sigma-Aldrich NV, Belgium). • b) Calcium-sensitive dye - Fluo-4AM Fluo-4AM (Molecular Probes, USA) was dissolved in DMSO containing 10% Pluronic acid (Molecular Probes, USA) to give a stock solution which was diluted in assay buffer supplemented with 5 mM probenicid (Sigma, Aldrich NV, Belgium) to give a final concentration of 2 µM • c) 384-well plates Black-sided, transparent bottomed 384 well plates coated with poly-D-lysine, PDL pre-coated (Coming, Incorporated, USA) • d) Calcium flux measurement A Functional drug screening system (FDSS, Hamamatsu) was used to measure intracellular free-calcium flux signals.
Monolayers of human alpha 7-wt nAChR-expressing cells were grown in black-sided, transparent bottomed 384 well plates coated with PDL for 24 hours prior to loading with a fluorescent calcium indicator, fluo-4AM for up to 120 minutes.
PAM activity was detected in real time by applying the compounds to be tested to the loaded cells along with an alpha 7 nicotinic receptor agonist during constant monitoring of cellular fluorescence in a FDSS. Compounds giving peak fluorescent responses greater than the response due to agonist alone, were consideted to be alpha 7 nAChR PAMs. The alpha 7 nicotinic receptor agonist was choline, applied at a sub-maximal concentration of 100 µM. In a further setting of the present invention the compounds were applied prior to the alpha 7 nicotinic receptor agonist, in a particular 10 minutes prior to the agonist.
A control response to choline was calculated on each plate from the difference in peak in fluorescence in wells receiving either choline or assay buffer alone. Compounds of the present invention were tested at a concentration range from 0.01 µM to 30 µM. Compounds were considered to have an interesting activity when they potentiated the choline signal at least with 200 % when tested at a concentration of 30 µM (the efficacy of 100 µM choline was defined as 100% in the absence of a PAM). An EC50 (or pEC50) was determined as a concentration relating to half the maximal effect, when a clear sigmoidal curve with top plateau was obtained.

For Cc1cc(-c2ccc(N3CCO[C@H](C(F)(F)F)C3)c(F)c2CNC(=O)C(C)C)cc(C)n1 [Compound 65], the EC50 (Ca2+ assay as described in D.1) was 575 nM.
Cc1cc(-c2ccc(N3CCO[C@H](C(F)(F)F)C3)c(F)c2CNC(=O)c2conc2C)cc(C)n1 [Compound 66] gave an EC50 (Ca2+ assay as described in D.1) of 398 nM and an Emax of 649%.
With Cc1cc(-c2ccc(N3CCO[C@H](C(F)(F)F)C3)c(F)c2CNC(=O)c2cc(C)on2)cc(C)n1 [Compound 67] the EC50 (Ca2+ assay as described in D.1) was 347 nM.
For Cc1cc(-c2ccc(N3CCO[C@H](C(F)(F)F)C3)c(F)c2CNC(=O)CC(C)C)cc(C)n1 [Compound 68], the EC50 (Ca2+ assay as described in D.1) was 132 nM.
For Cc1cc(-c2ccc(N3CCO[C@H](C(F)(F)F)C3)c(F)c2CNC(=O)C2CC2)cc(C)n1 [Compound 69], the EC50 (Ca2+ assay as described in D.1) was 776 nM.
With Cc1cc(-c2ccc(N3CCO[C@H](C(F)(F)F)C3)c(F)c2CNC(=O)CC2CCC2)cc(C)n1 [Compound 70] the EC50 (Ca2+ assay as described in D.1) was 115 nM.
In the case of Cc1cc(-c2ccc(N3CCO[C@@H](C(F)(F)F)C3)c(F)c2CNC(=O)CC2CCC2)cc(C)n1 [Compound 71], the EC50 (Ca2+ assay as described in D.1) is reported as 32.4 nM.
Cc1cc(-c2ccc(N3CCO[C@@H](C(F)(F)F)C3)c(F)c2CNC(=O)CC(C)C)cc(C)n1 [Compound 72] was tested, and the EC50 (Ca2+ assay as described in D.1) was 14.8 nM.
Cc1cc(-c2ccc(N3CCO[C@@H](C(F)(F)F)C3)c(F)c2CNC(=O)C2CC2)cc(C)n1 [Compound 73] was tested, and the EC50 (Ca2+ assay as described in D.1) was 741 nM and the Emax was 878%.
Work on Cc1cc(-c2c(F)cc(N3C[C@@H](C)O[C@@H](C)C3)cc2CNC(=O)CC2CC2)cc(C)n1 [Compound 74] yielded an EC50 (Ca2+ assay as described in D.1) of 11.2 nM and an Emax of 508%.
Work on Cc1cc(-c2c(F)cc(N3C[C@@H](C)O[C@@H](C)C3)cc2CNC(=O)c2cc(C)on2)cc(C)n1 [Compound 75] yielded an EC50 (Ca2+ assay as described in D.1) of 209 nM.
With Cc1cc(-c2c(F)cc(N3C[C@@H](C)O[C@@H](C)C3)cc2CNC(=O)c2conc2C)cc(C)n1 [Compound 76] the EC50 (Ca2+ assay as described in D.1) was ~38 nM and the Emax was 572%.
Cc1cc(-c2c(F)cc(N3C[C@@H](C)O[C@@H](C)C3)cc2CNC(=O)CC(F)(F)F)cc(C)n1 [Compound 77] gave an Emax (Ca2+ assay as described in D.1) of 136%.
Cc1cc(-c2c(F)cc(N3C[C@@H](C)O[C@@H](C)C3)cc2CNC(=O)C(C)C)cc(C)n1 [Compound 78] was tested, and the EC50 (Ca2+ assay as described in D.1) was 21.9 nM and the Emax was 707%.
Cc1cc(-c2c(F)cc(N3C[C@@H](C)O[C@@H](C)C3)cc2CNC(=O)C2CC2)cc(C)n1 [Compound 79] gave an EC50 (Ca2+ assay as described in D.1) of 17.4 nM and an Emax of 381%.
For Cc1cc(-c2c(F)cc(N3C[C@@H](C)O[C@@H](C)C3)cc2CNC(=O)CC2CCC2)cc(C)n1 [Compound 80], the EC50 (Ca2+ assay as described in D.1) was 6.17 nM.
Cc1cc(-c2c(F)cc(N3C[C@@H](C)O[C@@H](C)C3)cc2CNC(=O)CCC(F)(F)F)cc(C)n1 [Compound 81] gave an EC50 (Ca2+ assay as described in D.1) of 5.37 nM.
For Cc1cc(-c2c(F)cc(N3C[C@@H](C)O[C@@H](C)C3)cc2CNC(=O)CC(C)C)cc(C)n1 [Compound 83], the EC50 (Ca2+ assay as described in D.1) was 7.08 nM and the Emax was 906%.
For Cc1cc(-c2c(F)cc(N3C[C@@H](C)O[C@@H](C)C3)cc2CNC(=O)CC(C)(C)C)cc(C)n1 [Compound 84], the EC50 (Ca2+ assay as described in D.1) was 9.33 nM and the Emax was 686%.
Cc1cc(-c2c(F)cc(N3C[C@@H](C)O[C@@H](C)C3)cc2CNC(=O)C2CCC2)cc(C)n1 [Compound 85] gave an EC50 (Ca2+ assay as described in D.1) of 6.17 nM and an Emax of 954%.
For Cc1cc(-c2c(F)cc(N3C[C@@H](C)O[C@@H](C)C3)cc2CNC(=O)CC2CC2)ccn1 [Compound 87], the EC50 (Ca2+ assay as described in D.1) was 79.4 nM.
Cc1cc(-c2c(F)cc(N3C[C@@H](C)O[C@@H](C)C3)cc2CNC(=O)c2cc(C)on2)ccn1 [Compound 90] showed an EC50 (Ca2+ assay as described in D.1) of 525 nM.
Cc1cc(-c2c(F)cc(N3C[C@@H](C)O[C@@H](C)C3)cc2CNC(=O)CC(C)C)ccn1 [Compound 92] gave an EC50 (Ca2+ assay as described in D.1) of 12.6 nM.
Cc1cc(-c2c(F)cc(N3CCCC(C(F)(F)F)C3)cc2CNC(=O)C(C)C2CC2)cc(C)n1 (stereo not shown) [Compound 93] showed an EC50 (Ca2+ assay as described in D.1) of 36.3 nM and an Emax of 736%.
Cc1cc(-c2c(F)cc(N3CCCC(C(F)(F)F)C3)cc2CNC(=O)c2cc(C)on2)cc(C)n1 (stereo not shown) [Compound 94] showed an EC50 (Ca2+ assay as described in D.1) of 195 nM and an Emax of 428%.
Cc1cc(-c2c(F)cc(N3CCCC(C(F)(F)F)C3)cc2CNC(=O)CC2CC2)cc(C)n1 (stereo not shown) [Compound 95] was tested, and the EC50 (Ca2+ assay as described in D.1) was 27.5 nM and the Emax was 427%.
With Cc1cc(-c2c(F)cc(N3CCCC(C(F)(F)F)C3)cc2CNC(=O)C(C)C)cc(C)n1 (stereo not shown) [Compound 96] the Emax (Ca2+ assay as described in D.1) was 148%.
With Cc1cc(-c2c(F)cc(N3CCCC(C(F)(F)F)C3)cc2CNC(=O)C2CC2)cc(C)n1 (stereo not shown) [Compound 97] the EC50 (Ca2+ assay as described in D.1) was 19.5 nM and the Emax was 330%.
In the case of Cc1cc(-c2c(F)cc(N3CCCC(C(F)(F)F)C3)cc2CNC(=O)c2conc2C)cc(C)n1 (stereo not shown) [Compound 98], the Emax (Ca2+ assay as described in D.1) is reported as 119%.
Cc1cc(-c2c(F)cc(N3CCO[C@@H](C(F)(F)F)C3)cc2CNC(=O)CC(C)C)cc(C)n1 [Compound 101] was tested, and the EC50 (Ca2+ assay as described in D.1) was < 10 nM.
In the case of Cc1cc(-c2c(F)cc(N3C[C@@H](C)O[C@@H](C)C3)c(F)c2CNC(=O)C2CC2)cc(C)n1 [Compound 122], the EC50 (Ca2+ assay as described in D.1) is reported as 589 nM.
Cc1cc(-c2ccc(N3CC4CCC(C3)O4)cc2CNC(=O)C(C)C)cc(C)n1 [Compound 129] was tested, and the EC50 (Ca2+ assay as described in D.1) was 724 nM and the Emax was 296%.
For Cc1cc(-c2ccc(N3CC4CCC(C3)O4)cc2CNC(=O)CC2CC2)cc(C)n1 [Compound 130], the Emax (Ca2+ assay as described in D.1) was 95.5%.
For Cc1cc(-c2ccc(N3C[C@@H](C)O[C@@H](C)C3)c(CNC(=O)c3ccc(F)cc3C)c2)cc(C)n1 [Compound 135], the EC50 (Ca2+ assay as described in D.1) was 14.1 nM.
With Cc1nocc1C(=O)NCc1cc(N2CCOCC2)ccc1-c1ccncc1 [Compound 138] the Emax (Ca2+ assay as described in D.1) was 386%.
O=C(CC1CC1)NCc1cc(N2CCOCC2)ccc1-c1ccncc1 [Compound 139] showed an EC50 (Ca2+ assay as described in D.1) of 3160 nM and an Emax of 367%.
With Cc1cc(-c2ccc(N3CCOCC3)cc2CNC(=O)C(C)C)ccn1 [Compound 140] the “% Efficacy” value (Ca2+ assay as described in D.1) was 495.5% and 591.6%.
With Cc1cc(-c2ccc(N3CCOCC3)cc2CNC(=O)c2cc(C)on2)ccn1 [Compound 142] the Emax (Ca2+ assay as described in D.1) was 545%.
For Cc1cc(-c2ccc(N3CCOCC3)cc2CNC(=O)c2conc2C)ccn1 [Compound 143], the EC50 (Ca2+ assay as described in D.1) was 8710 nM and the Emax was 130%.
